Laboratory results reported in ChEMBL document CHEMBL1201862, “PubChem BioAssay data set” (2004).
Calls of active or inactive are those of the source.

How the values were obtained:
[1] = lung carcinoma cell viability loss – CellTiter-Glo luminescence, dry powder, set 17, dose response (AID 1117284); format: functional, cell-based; settings: A549
[2] = antimalarial activity against Dd2 parasites – SYBR Green fluorescence, erythrocytes, dry powder, set 2, dose response (AID 1159574); format: functional, cell-based
cells [3] = settings: HEK293
[4] = toxicity to HepG2 liver cells – cell-based, plate reader, dry powder, set 6, cytotoxicity control, dose response (AID 743311); format: functional
[5] = toxicity to A549 lung cells – cell-based, plate reader, dry powder, set 6, cytotoxicity control, dose response (AID 743312); format: functional
[6] = loss of HEK293T viability via ATP – cell-based, plate reader, dry powder, set 10, cytotoxicity control, dose response (AID 743315); format: functional; settings: HEK293
[7] = HEK-293T viability loss after treatment – luminescence, T-cell screen hits, cytotoxicity control for TCR NF-kB inhibitor project, dose response (AID 489026); format: functional, cell-based;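 further: cells exposed to compound about 14 hours before the viability readout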
[8] = luciferase reporter signal suppression in cells – H4 neuroglioma cells, luminescence, dose response (AID 1990); format: functional, cell-based
[9] = DRD fibroblast viability loss – cell-based, non-viral oncogenic, luminescence, dose response (AID 1934); format: functional; settings: Homo sapiens
[10] = alpha-synuclein stem-loop luciferase translation blockers – H4 neuroglioma cells, luminescence, confirmation (AID 1988); format: functional, cell-based
[11] = Luminescence Cell-Based Dose Response HTS to Identify Inhibitors of 5'UTR Stem-Loop Driven Prion Protein mRNA Translation in H4 Neuroglioblastoma Cells. [Related pubchem assays: 1827 (Project Summary), 1813 (Primary HTS)]; format: functional
BJ [12] = test: BJ-TERT fibroblast viability loss – cell-based, RAS-independent, luminescence, dose response (AID 1933); format: functional; settings: Homo sapiens
BJ [13] = test: BJ-TERT-LT-ST fibroblast viability loss – cell-based, RAS-independent, luminescence, dose response (AID 1935); format: functional; settings: Homo sapiens;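 further: BJ fibroblasts immortalized with TERT plus LT and ST oncogenes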
BJ [14] = test: cells; format: functional, cell-based; settings: Homo sapiens
[15] = toxicity toward HEK293 cells – cell-based, dry powder samples, cytotoxicity control, dose response (AID 720567); format: functional
[16] = fluconazole-exposed Candida albicans growth modulators – fluorescence, retest, confirmation (AID 2467); format: functional, cell-based
[17] = biological target: Voltage-gated inwardly rectifying potassium channel KCNH2 (Homo sapiens, UniProt Q12809); test: concentration-dependent hERG rescue from blockers – cell-based, thallium flux, dose response (AID 2121); format: ADME
Voltage-gated inwardly rectifying potassium channel KCNH2, sequence (Q12809 whole entry): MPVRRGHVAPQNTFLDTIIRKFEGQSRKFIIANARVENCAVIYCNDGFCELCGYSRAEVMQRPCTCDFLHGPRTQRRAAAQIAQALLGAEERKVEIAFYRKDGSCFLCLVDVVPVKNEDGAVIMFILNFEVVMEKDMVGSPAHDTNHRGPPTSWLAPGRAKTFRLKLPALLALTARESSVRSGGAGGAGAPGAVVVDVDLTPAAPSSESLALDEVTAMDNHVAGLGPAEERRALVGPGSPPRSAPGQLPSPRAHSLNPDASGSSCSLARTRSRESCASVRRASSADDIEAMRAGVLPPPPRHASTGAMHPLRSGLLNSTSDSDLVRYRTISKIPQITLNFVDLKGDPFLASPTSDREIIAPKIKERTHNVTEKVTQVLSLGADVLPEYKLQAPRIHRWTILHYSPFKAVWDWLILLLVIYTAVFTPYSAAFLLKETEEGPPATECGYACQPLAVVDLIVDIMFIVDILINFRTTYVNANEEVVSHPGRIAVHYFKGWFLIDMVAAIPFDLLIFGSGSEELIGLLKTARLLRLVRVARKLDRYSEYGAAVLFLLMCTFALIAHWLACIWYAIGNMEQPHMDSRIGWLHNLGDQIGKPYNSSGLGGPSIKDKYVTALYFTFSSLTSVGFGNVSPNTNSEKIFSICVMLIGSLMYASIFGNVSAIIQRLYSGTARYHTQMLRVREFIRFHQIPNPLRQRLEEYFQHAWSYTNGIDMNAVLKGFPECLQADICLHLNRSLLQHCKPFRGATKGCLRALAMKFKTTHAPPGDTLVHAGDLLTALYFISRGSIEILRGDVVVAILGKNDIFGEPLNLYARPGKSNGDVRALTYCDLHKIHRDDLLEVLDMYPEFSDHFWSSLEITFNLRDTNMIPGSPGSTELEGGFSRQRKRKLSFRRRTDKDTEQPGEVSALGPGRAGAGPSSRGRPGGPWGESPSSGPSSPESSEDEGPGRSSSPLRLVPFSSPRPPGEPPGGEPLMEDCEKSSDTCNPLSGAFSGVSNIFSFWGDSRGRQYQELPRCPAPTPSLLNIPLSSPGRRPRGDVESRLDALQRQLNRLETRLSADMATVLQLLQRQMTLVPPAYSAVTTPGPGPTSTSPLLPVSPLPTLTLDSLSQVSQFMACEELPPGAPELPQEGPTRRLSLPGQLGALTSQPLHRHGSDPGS

cells [18] = format: functional, cell-based
[19] = NIH-3T3 fibroblast cytotoxicity, dose response, cytotoxicity control, cell-based, fluorescence, Alamar Blue, secondary assay (AID 2327); format: functional;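 further: NIH-3T3 mouse fibroblasts cultured with fluconazole at 8 µg/mL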
cells [20] = format: functional, cell-based; remark: listed apart in the source
[21] = rise of 4N DNA cells, HeLa – IC50, dose response (AID 1117351); format: functional, cell-based
[22] = rise of 2N DNA cells, HeLa – IC50, dose response (AID 1117349); format: functional, cell-based
[23] = Dd2 parasite growth inhibition in erythrocytes – SYBR Green, dry powder samples, set 9, dose response (AID 1159568); format: functional, cell-based
[24] = biological target: Solute carrier family 12 member 2/member 5 (Homo sapiens, UniProt P55011+Q9H2X9); test: KCC2 and NKCC1 inhibition by rubidium flux, cell-based, NKCC1 counter-screen (AID 1734); format: functional, HEK293
[25] = Luminescence-based cell-based high throughput dose response assay to identify activators of the DAF-12 from the parasite S. stercoralis (ssDAF-12).; format: functional
[26] = biological target: T1, Oxysterols receptor LXR-beta (Homo sapiens, UniProt P55055); test: LXR agonists, Gal4 luciferase reporter, dose response, counter-screen for ssDAF-12 agonist project, cell-based, luminescence, HEK293, S. stercoralis campaign (AID 720737); format: functional; settings: read-out: IC50 (the source's name)
T1 sequence (P55055 whole entry): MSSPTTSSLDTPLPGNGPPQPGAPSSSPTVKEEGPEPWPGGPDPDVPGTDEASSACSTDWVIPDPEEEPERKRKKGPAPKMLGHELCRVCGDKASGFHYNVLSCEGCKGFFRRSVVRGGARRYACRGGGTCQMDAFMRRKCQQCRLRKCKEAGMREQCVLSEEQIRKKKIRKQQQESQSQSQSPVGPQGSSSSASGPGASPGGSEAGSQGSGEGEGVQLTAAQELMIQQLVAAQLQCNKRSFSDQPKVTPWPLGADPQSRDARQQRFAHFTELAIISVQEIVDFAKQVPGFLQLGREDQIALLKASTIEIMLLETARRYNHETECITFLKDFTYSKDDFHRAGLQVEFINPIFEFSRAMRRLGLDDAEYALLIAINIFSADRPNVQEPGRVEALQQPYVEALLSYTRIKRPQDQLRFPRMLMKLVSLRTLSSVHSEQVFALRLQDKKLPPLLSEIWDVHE

For `C[C@H]1CN([C@@H](C)CO)S(=O)(=O)c2ccc(-c3ccc(O)cc3)cc2O[C@H]1CN(C)Cc1ccc(-c2ccccc2)cc1`, the AC50 [1] was > 52 µM (inactive).
With `COc1ccc2c3c([nH]c2c1)[C@@H](CO)N(C(C)=O)CC31CCN(C(=O)Nc2ccccc2F)CC1` the AC50 [2] was 2.48 µM (active).
With `Cc1cccc(OCCn2c(S)nc3cc(F)ccc32)c1` the AC50 (cells [3]) was > 52 µM (inactive), the AC50 [4] was 44.9 µM (active) and the AC50 [5] was 23.4 µM (active). For the same compound, the AC50 [6] was > 52 µM (inactive).
With `CCCOC(=O)c1[nH]c2c(c1C)C(=O)CC(c1cccs1)C2` (stereo unspecified) the IC50 [7] was > 80 µM (inactive), the EC50 [8] was 0.391 µM (active) and the EC50 [9] was 0.615 µM (active). For the same compound, the EC50 [10] was 0.167 µM (active), the EC50 [11] was 1.01 µM (active) and the EC50 (BJ [12]) was 0.567 µM (active). For the same compound, the EC50 (BJ [13]) was 0.399 µM (active), the EC50 (BJ [14]) was 1.82 µM (active) and the AC50 [15] was 0.594 µM (active).
With `COc1ccc(NC(=O)C(=O)NNC(=O)c2ccc(Cl)cc2Cl)cc1` the EC50 [16] was 2.28 µM (active), the EC50 [17] was 0.5 µM (active) and the EC50 (cells [18]) was > 350 µM (not active). The EC50 [19] was > 150 µM (inactive) and the EC50 (cells [20]) was > 350 µM (not active).
For `C[C@@H]1C[C@H]2[C@@H]3CCC4=CC(=O)C=C[C@]4(C)[C@@]3(Cl)[C@@H](O)C[C@]2(C)[C@@]1(OC(=O)c1ccco1)C(=O)CCl` [MOMETASONE FUROATE], the IC50 [21] was > 10 µM (inactive) and the IC50 [22] was > 10 µM (inactive).
For `N#C[C@H]1[C@H](c2ccc(-c3cccc(F)c3)cc2)[C@@H](CO)N1C(=O)NC1CCCC1`, the AC50 [23] was 20.2 µM (active).
In the case of `O=C(Cn1cnc2c(nnn2Cc2ccccc2)c1=O)c1ccc(Cl)cc1`, the IC50 [24] is reported as 1.2 µM (active).
In the case of `Cc1ccnc(NC(=O)c2ccc3nc(O)c(O)nc3c2)c1`, the IC50 [25] is reported as > 67.5 µM (inactive) and the EC50 [26] is reported as > 67.5 µM (inactive).
